These results are taken from paper PMC11747586, “Synthesis and Investigation of Peptide–Drug Conjugates Comprising Camptothecin and a Human Protein‐Derived Cell‐Penetrating Peptide” (Chemical Biology & Drug Design, 2025).

Positions of bridges follow the written chain, without caps; N, C: chain ends. Residues, ends and D or L forms follow the SMILES beside them.

In general, CC50 refers to the concentration at which the toxic effect on the cells reaches its halfway point.

The nature of data set [1]: Cytotoxicity (resazurin) against cultured HaCaT noncancerous cells. Here is the method: (§1) Cell death was measured using resazurin, with 0.1% (v/v) Triton X‐100 as a control for 100% cell death. Data points are expressed as mean ± SD for at least two biological replicates. Dose response curves were fitted using [inhibitor] versus response with variable slope, Graphpad Prism v10. […] RBC lysis was determined by measuring released hemoglobin, with 0.1% (v/v) Triton X‐100 as a control for 100% cell lysis. Melittin was included as a membranolytic control. Data points are expressed as mean ± SD for two technical replicates. Dose response curves were fitted using [inhibitor] versus response with variable slope, Graphpad Prism v10. […] CC50 values are expressed as mean (SEM). […]
(§2) HaCaT cells were grown in DMEM medium and HT144 cells were grown in RPMI medium supplemented with 2 mM L-glutamine and 10 mM sodium pyruvate. Media were supplemented with 10% (v/v) fetal bovine serum, 100 units/mL of penicillin and […] of streptomycin. Flasks of cultured cells were maintained in a humidified incubator (37 °C, 5% CO2) and passaged every 2–3 days to maintain cultures between 20–90% confluence. Cell line identity was verified by comparing […]
(§3) STR profiles of the cell lines against database entries from the DSMZ-German collection of microorganisms and cell cultures, GmBH https://celldive.dsmz.de/str/browse.
(§4) Toxicity to the HT144 and HaCaT cell lines was tested following peptide treatment by measuring the metabolism of resazurin into fluorescent resorufin. The assays were performed with 5000 cells/well (96-well plate) in serum free media. Cells were incubated with serially diluted peptides, PDCs or drugs for 72 h or 24 h (37 °C, 5% CO2). PBS and 0.1% (v/v) Triton X-100 were included as controls for 0% and 100% toxicity. Resazurin was added at 0.02% (w/v) final concentration 2 h prior to the assay end point. Fluorescence (λex = 560 nm, λem = 585 nm) was measured using a Tecan infinite M1000Pro multiplate reader. Percentage cytotoxicity was calculated relative to 0% and 100% controls.
(§5) Dose-response curves were fitted and CC50 values were determined using [inhibitor] vs response with four parameters with the top constrained to 100% (GraphPad Prism version 10.0.2). Data was collected as three biological replicates, with experiments conducted on different days.
(§6) Red blood cell (RBC) lysis
(§7) Human RBCs and serum were obtained from healthy volunteers via the Red Cross Lifeblood, Brisbane, Australia. RBCs were washed three times with PBS and stored in culture medium (RPMI
(Alamar Blue is a resazurin reagent that responds to reducing activity.)

For data set [2], the system named is HaCaT (noncancerous) cells. Described as above. The following applies: read-out: CC50 HaCaT; 72 h incubation, resazurin; mean (SEM). Here is the method: as §1, §2, §3, §4, §5, §6, §7
Data set [3] has as its system human RBCs. Description: Red blood cell (RBC) lysis, released hemoglobin. The following applies: red cells of human, 72 h. Here is the method:
as §1, §6
Human RBCs and serum were obtained from healthy volunteers via the Red Cross Lifeblood,
Brisbane, Australia. RBCs were washed three times with PBS and stored in culture medium (RPMI

In data set [4] the test system is HT144 cells. Description: Compound internalization/association with HT144 cells (TOF-MS of cell extracts). It counts as cell-based. The following applies: 4 μM, 1 h. Here is the method:
FIGURE 4 (A) Membrane permeability and cellular uptake of PDCs, scaffold peptides, and CPT. Compounds were added to PAMPA wells (4 μM) and incubated for 4 h. Supernatant from apical and basolateral sides of the membrane were collected and analyzed using LC–MS. The amount in the combined soluble fractions was compared to the starting amount to determine % recovery, and the apparent permeability (Papp) was calculated as before (Sevin et al. [2013]). Data is expressed as mean ± SD from a single experiment with three technical replicates. (B) Internalization/cell membrane association of PDCs 12–14 and PDIP with HT144 cells. […] The relative amount of internalized peptide or PDC was determined by integrating area under the curve (AUC) for the [M + 6H]^6+ m/z peak (for the intact mass) using time of flight–mass spectrometry (see Figure S2). […] Data is expressed as mean ± SD from a single experiment with three technical replicates for each treatment and control and was analyzed with ANOVA (Tukey multiple comparisons; **p < 0.01, *p < 0.05). […] Data is expressed as mean ± SD from a single experiment with three technical replicates for each treatment and was analyzed with ANOVA (Fisher multiple paired comparisons; **p < 0.01, *p < 0.05). […]
The area under the curve (AUC) for the [M+6H]6+ m/z peak for each compound was determined using Sciex […]

Consider `CC[C@H](C)[C@@H]1NC(=O)[C@H](CCCCN)NC(=O)[C@H](CCCCN)NC(=O)[C@H](Cc2ccc(O)cc2)NC(=O)[C@H](CC(C)C)NC(=O)[C@@H]2CCCN2C(=O)CNC(=O)CNC(=O)[C@@H](NC(=O)CN)CSSC[C@@H](C(=O)N[C@@H](CCC(=O)O)C(=O)N[C@@H](CO)C(N)=O)NC(=O)[C@H](CC(C)C)NC(=O)[C@H](CCCCN)NC(=O)[C@H](CCCCN)NC(=O)[C@H]([C@@H](C)CC)NC(=O)[C@H]([C@@H](C)CC)NC(=O)[C@H](CCCCN)NC(=O)[C@H](CCCCN)NC(=O)[C@H](Cc2ccc(O)cc2)NC(=O)[C@H](CC(C)C)NC(=O)[C@@H]2CCCN2C(=O)[C@H](C)NC(=O)CNC(=O)CNC(=O)[C@H](CO)NC(=O)CNC(=O)CNC(=O)[C@H](CO)NC(=O)[C@H](CCC(=O)O)NC(=O)[C@H](CC(C)C)NC(=O)[C@H](CC(C)C)NC(=O)[C@H](CCCCN)NC(=O)[C@H](CCCCN)NC(=O)[C@H]([C@@H](C)CC)NC1=O` [PDIP, reference compound] (H-GCGGPLYKKIIKKLLESGGSGGAPLYKKIIKKLCES-NH2; disulfide 2-34; N-terminus assumed), for which the CC50 in data set [1] is > 32 µM; in data set [2] it was ≥ 32 µM. In data set [3], the “HC10 (minimal hemolytic concentration) RBC” value is reported as ~ 32 μM. Further, in data set [4], the “recovered intact conjugate/peptide (percentage of internalized compound)” value was 9%.
